Data from patent US8952163B2, “Substituted hydroxamic acids and uses thereof” (Millennium Pharmaceuticals, Inc., priority 2010, dated 2015).

Each compound was assayed against T1, purified human HDAC6 (Homo sapiens, UniProt Q9UBN7) (assay: HDAC6 Enzyme Assay). Settings: test compound at 1.235 μM; substrate Ac-Arg-Gly-Lys(Ac)-AMC, 1 hour at 30° C.; read-out: Percent Inhibition at 1.235 μM.
T1 construct: purchased BPS Bioscience 5006
T1 sequence (Q9UBN7 1-1215): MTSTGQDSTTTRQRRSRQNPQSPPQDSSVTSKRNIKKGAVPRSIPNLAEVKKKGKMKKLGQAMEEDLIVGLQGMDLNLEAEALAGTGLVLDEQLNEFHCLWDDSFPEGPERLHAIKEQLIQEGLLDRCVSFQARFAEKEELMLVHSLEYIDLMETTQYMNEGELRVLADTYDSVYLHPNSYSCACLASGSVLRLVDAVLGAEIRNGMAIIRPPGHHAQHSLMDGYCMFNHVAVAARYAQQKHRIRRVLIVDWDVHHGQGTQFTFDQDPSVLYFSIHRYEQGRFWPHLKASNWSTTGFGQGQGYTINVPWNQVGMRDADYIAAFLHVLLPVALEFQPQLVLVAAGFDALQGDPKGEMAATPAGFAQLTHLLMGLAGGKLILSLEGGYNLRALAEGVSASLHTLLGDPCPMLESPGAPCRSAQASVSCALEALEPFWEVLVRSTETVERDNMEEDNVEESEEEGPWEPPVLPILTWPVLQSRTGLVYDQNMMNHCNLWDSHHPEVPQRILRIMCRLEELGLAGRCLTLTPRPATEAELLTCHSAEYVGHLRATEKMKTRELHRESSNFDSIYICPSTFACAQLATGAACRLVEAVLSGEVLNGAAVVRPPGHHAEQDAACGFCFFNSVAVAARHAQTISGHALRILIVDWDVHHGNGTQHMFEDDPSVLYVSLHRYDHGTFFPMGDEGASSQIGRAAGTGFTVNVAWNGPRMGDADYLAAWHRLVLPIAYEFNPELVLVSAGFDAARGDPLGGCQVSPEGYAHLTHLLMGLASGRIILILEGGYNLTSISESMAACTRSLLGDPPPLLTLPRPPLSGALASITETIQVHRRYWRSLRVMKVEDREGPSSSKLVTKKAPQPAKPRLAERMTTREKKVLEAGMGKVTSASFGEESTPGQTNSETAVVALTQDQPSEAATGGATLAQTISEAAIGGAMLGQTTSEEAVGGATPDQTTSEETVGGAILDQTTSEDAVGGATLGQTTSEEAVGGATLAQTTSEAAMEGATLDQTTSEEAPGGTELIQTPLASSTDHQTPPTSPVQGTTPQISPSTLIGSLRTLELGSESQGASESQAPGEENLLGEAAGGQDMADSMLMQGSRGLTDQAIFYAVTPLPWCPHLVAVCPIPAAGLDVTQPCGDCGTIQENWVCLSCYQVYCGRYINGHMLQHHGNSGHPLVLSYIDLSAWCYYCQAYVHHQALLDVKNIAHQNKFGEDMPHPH
Assay type: biochemical
Description: To measure the inhibition of HDAC6 activity, purified human HDAC6 (BPS Bioscience; Cat. No. 5006) is incubated with substrate Ac-Arg-Gly-Lys(Ac)-AMC peptide (Bachem Biosciences; Cat. No. I-1925) for 1 hour at 30° C. in the presence of test compounds or vehicle DMSO control. The reaction is stopped with the HDAC inhibitor trichostatin A (Sigma; Cat. No. T8552) and the amount of Arg-Gly-Lys-AMC generated is quantitated by digestion with trypsin (Sigma; Cat. No. T1426) and subsequent measurement of the amount of AMC released using a fluorescent plate reader (Pherastar, BMG Technologies) set at Ex 340 nm and Em 460 nm. Concentration response curves are generated by calculating the fluorescence increase in test compound-treated samples relative to DMSO-treated controls, and percentage inhibition values at a single concentration or enzyme inhibition (IC50) values are determined from those curves. One skilled in the art will appreciate that the values generated either as percentage inhibition at a single concentration or IC50 values are subject to experimental variation.
With `O=C(NO)c1ccc2c(n1)CCN(C(=O)NC13CC4CC(CC(C4)C1)C3)C2` [Compound I-13, N^6-[1-adamantyl]-N^2-hydroxy-7,8-dihydro-1,6-naphthyridine-2,6(5H)-dicarboxamide] the inhibition at 1.235 µM was 70.6%.
`O=C(NO)c1cnc2c(c1)CN(Cc1ccccc1)CC2` [Compound I-20, 6-benzyl-N-hydroxy-5,6,7,8-tetrahydro-1,6-naphthyridine-3-carboxamide] gave an inhibition at 1.235 µM of 58.6%.
`Cn1cccc1C(=O)N1CCc2ncc(C(=O)NO)cc2C1` [Compound I-39, N-hydroxy-6-[(1-methyl-1H-pyrrol-2-yl)carbonyl]-5,6,7,8-tetrahydro-1,6-naphthyridine-3-carboxamide] was tested, and the inhibition at 1.235 µM was 92.5%.
Compound `O=C(NO)c1cnc2c(c1)CN(C(=O)c1[nH]c3ccccc3c1-c1ccccc1)CC2` [Compound I-29, N-hydroxy-6-[(3-phenyl-1H-indol-2-yl)carbonyl]-5,6,7,8-tetrahydro-1,6-naphthyridine-3-carboxamide] has an inhibition at 1.235 µM of 97.8%.
For `CC(=O)N1CCc2nc(C(=O)NO)ccc2C1` [Compound I-2, 6-acetyl-N-hydroxy-5,6,7,8-tetrahydro-1,6-naphthyridine-2-carboxamide], the inhibition at 1.235 µM was 34.1%.
Work on `Cc1nc(C(=O)N2CCc3ncc(C(=O)NO)cc3C2)cs1` [Compound I-1, N-hydroxy-6-[(2-methyl-1,3-thiazol-4-yl)carbonyl]-5,6,7,8-tetrahydro-1,6-naphthyridine-3-carboxamide] yielded an inhibition at 1.235 µM of 87.8%.
`COc1ccc(C(=O)N2CCc3nc(C(=O)NO)ccc3C2)cc1` [Compound I-35, N-hydroxy-6-(4-methoxybenzoyl)-5,6,7,8-tetrahydro-1,6-naphthyridine-2-carboxamide] showed an inhibition at 1.235 µM of 67%.
Compound `Cc1nc(C(=O)N2CCc3cc(C(=O)NO)cnc3C2)cs1` [Compound I-10, N-hydroxy-7-[(2-methyl-1,3-thiazol-4-yl)carbonyl]-5,6,7,8-tetrahydro-1,7-naphthyridine-3-carboxamide] has an inhibition at 1.235 µM of 84.6%.
With `O=C(NO)c1ccc2c(n1)CCN(S(=O)(=O)c1ccc(C(F)(F)F)cc1)C2` [Compound I-59, N-hydroxy-6-{[4-(trifluoromethyl)phenyl]sulfonyl}-5,6,7,8-tetrahydro-1,6-naphthyridine-2-carboxamide] the inhibition at 1.235 µM was 67.4%.
`CCC(C)NC(=O)N1CCc2nc(C(=O)NO)ccc2C1` (stereo not drawn) [Compound I-16, N^6-(sec-butyl)-N^2-hydroxy-7,8-dihydro-1,6-naphthyridine-2,6(5H)-dicarboxamide] gave an inhibition at 1.235 µM of 27.3%.
With `O=C(NO)c1ccc2c(n1)CCN(Cc1ccccc1)C2` [Compound I-38, 6-benzyl-N-hydroxy-5,6,7,8-tetrahydro-1,6-naphthyridine-2-carboxamide] the inhibition at 1.235 µM was 60.2%.
`O=C(NO)c1ccc2c(n1)CCN(C(=O)NCc1ccccc1)C2` [Compound I-25, N^6-benzyl-N^2-hydroxy-7,8-dihydro-1,6-naphthyridine-2,6(5H)-dicarboxamide] gave an inhibition at 1.235 µM of 60.4%.
`CC1(C(=O)N2CCc3ncc(C(=O)NO)cc3C2)CCCCC1` [Compound I-56, N-hydroxy-6-[(1-methylcyclohexyl)carbonyl]-5,6,7,8-tetrahydro-1,6-naphthyridine-3-carboxamide] was tested, and the inhibition at 1.235 µM was 93%.
`O=C(NO)c1ccc2c(n1)CCN(C(=O)Nc1ccccc1)C2` [Compound I-51, N^2-hydroxy-N^6-phenyl-7,8-dihydro-1,6-naphthyridine-2,6(5H)-dicarboxamide] showed an inhibition at 1.235 µM of 63.4%.
In the case of `O=C(NO)c1ccc2c(n1)CCN(C(=O)NC1CCCCC1)C2` [Compound I-17, N^6-cyclohexyl-N^2-hydroxy-7,8-dihydro-1,6-naphthyridine-2,6(5H)-dicarboxamide], the inhibition at 1.235 µM is reported as 41.2%.
Compound `CCc1cccc(CC)c1NC(=O)N1CCc2nc(C(=O)NO)ccc2C1` [Compound I-47, N^6-(2,6-diethylphenyl)-N^2-hydroxy-7,8-dihydro-1,6-naphthyridine-2,6(5H)-dicarboxamide] has an inhibition at 1.235 µM of 34.3%.
In the case of `CC(=O)N1CCc2cc(C(=O)NO)cnc2C1` [Compound I-21, 7-acetyl-N-hydroxy-5,6,7,8-tetrahydro-1,7-naphthyridine-3-carboxamide], the inhibition at 1.235 µM is reported as 73.9%.
Compound `O=C(NO)c1cnc2c(c1)CCN(C(=O)C13CC4CC(CC(C4)C1)C3)C2` [Compound I-15, 7-[1-adamantylcarbonyl]-N-hydroxy-5,6,7,8-tetrahydro-1,7-naphthyridine-3-carboxamide] has an inhibition at 1.235 µM of 95.6%.
Work on `CC1(C(=O)N2CCc3cc(C(=O)NO)cnc3C2)CCCCC1` [Compound I-9, N-hydroxy-7-[(1-methylcyclohexyl)carbonyl]-5,6,7,8-tetrahydro-1,7-naphthyridine-3-carboxamide] yielded an inhibition at 1.235 µM of 95.2%.
`CCCNC(=O)N1CCc2nc(C(=O)NO)ccc2C1` [Compound I-36, N^2-hydroxy-N^6-propyl-7,8-dihydro-1,6-naphthyridine-2,6(5H)-dicarboxamide] was tested, and the inhibition at 1.235 µM was 26.5%.
Work on `O=C(NO)c1cnc2c(c1)CN(C(=O)c1ccc(-c3ccccn3)s1)CC2` [Compound I-42, N-hydroxy-6-[(5-pyridin-2-yl-2-thienyl)carbonyl]-5,6,7,8-tetrahydro-1,6-naphthyridine-3-carboxamide] yielded an inhibition at 1.235 µM of 97.5%.
With `O=C(NO)c1cnc2c(c1)CCN(C(=O)c1cc3ccccc3o1)C2` [Compound I-18, 7-(1-benzofuran-2-ylcarbonyl)-N-hydroxy-5,6,7,8-tetrahydro-1,7-naphthyridine-3-carboxamide] the inhibition at 1.235 µM was 97.2%.
Compound `O=C(NO)c1cnc2c(c1)CN(C(=O)c1ccc(-c3ccccc3)cc1)CC2` [Compound I-53, 6-(biphenyl-4-ylcarbonyl)-N-hydroxy-5,6,7,8-tetrahydro-1,6-naphthyridine-3-carboxamide] has an inhibition at 1.235 µM of 96.9%.
`O=C(NO)c1cnc2c(c1)CN(C(=O)c1cc3ccccc3s1)CC2` [Compound I-52, 6-(1-benzothien-2-ylcarbonyl)-N-hydroxy-5,6,7,8-tetrahydro-1,6-naphthyridine-3-carboxamide] gave an inhibition at 1.235 µM of 97.4%.
In the case of `CC(C)(C)C(=O)N1CCc2ncc(C(=O)NO)cc2C1` [Compound I-30, 6-(2,2-dimethylpropanoyl)-N-hydroxy-5,6,7,8-tetrahydro-1,6-naphthyridine-3-carboxamide], the inhibition at 1.235 µM is reported as 85%.
With `CCCCS(=O)(=O)N1CCc2ncc(C(=O)NO)cc2C1` [Compound I-58, 6-(butylsulfonyl)-N-hydroxy-5,6,7,8-tetrahydro-1,6-naphthyridine-3-carboxamide] the inhibition at 1.235 µM was 94.5%.
`CC(C)(C)c1ccccc1NC(=O)N1CCc2nc(C(=O)NO)ccc2C1` [Compound I-40, N^6-(2-tert-butylphenyl)-N^2-hydroxy-7,8-dihydro-1,6-naphthyridine-2,6(5H)-dicarboxamide] was tested, and the inhibition at 1.235 µM was 50.4%.
`O=C(NO)c1ccc2c(n1)CCN(C(=O)Nc1ccccc1-c1ccccc1)C2` [Compound I-34, N^6-biphenyl-2-yl-N^2-hydroxy-7,8-dihydro-1,6-naphthyridine-2,6(5H)-dicarboxamide] was tested, and the inhibition at 1.235 µM was 48.2%.
In the case of `CC(C)(C)NC(=O)N1CCc2nc(C(=O)NO)ccc2C1` [Compound I-45, N^6-(tert-butyl)-N^2-hydroxy-7,8-dihydro-1,6-naphthyridine-2,6(5H)-dicarboxamide], the inhibition at 1.235 µM is reported as 39%.
Work on `O=C(NO)c1ccc2c(n1)CCN(C(=O)Nc1ccc(-c3ccccc3)s1)C2` [Compound I-54, N^2-hydroxy-N^6-(5-phenyl-2-thienyl)-7,8-dihydro-1,6-naphthyridine-2,6(5H)-dicarboxamide] yielded an inhibition at 1.235 µM of 67.2%.
